The values that follow come from ChEMBL document CHEMBL2407063, “Synthesis and in vitro cellular uptake of 11C-labeled 5-aminolevulinic acid derivative to estimate the induced cellular accumulation of protoporphyrin IX” (Bioorg Med Chem Lett, 2013).

In general, Ki refers to the equilibrium dissociation constant of an inhibitor or competing ligand from its target. A lower Ki goes with tighter binding.

Data set [1] in a line: […] in mouse serum after 60 mins by HPLC analysis. The format is ADME, cell-free.
Data set [2] relates to ASPC1. The data set is described as follows: Cellular uptake in human AsPC1 cells at 15 MBq after 10 mins by gamma counting in presence of beta-transporter substrate GABA. Particulars: aspc1, 10 min; call rule not given here. The format is ADME, cell-based.
Data set [3] has as its target T1, Delta-aminolevulinic acid dehydratase (Homo sapiens, UniProt P13716).
T1 sequence (P13716 whole entry): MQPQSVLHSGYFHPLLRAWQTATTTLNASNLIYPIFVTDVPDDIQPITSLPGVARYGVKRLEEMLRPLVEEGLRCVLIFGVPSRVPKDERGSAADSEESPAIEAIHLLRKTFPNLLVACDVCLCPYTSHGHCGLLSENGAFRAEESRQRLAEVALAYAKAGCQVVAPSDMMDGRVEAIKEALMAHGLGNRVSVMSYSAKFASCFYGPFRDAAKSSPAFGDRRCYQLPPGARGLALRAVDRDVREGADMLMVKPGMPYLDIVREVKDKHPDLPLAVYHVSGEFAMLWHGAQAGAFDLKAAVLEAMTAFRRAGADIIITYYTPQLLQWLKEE
Nature of the data set: Inhibition of ALAD (unknown origin).

The subject of data set [4] is ASPC1. The data set is described as follows: Cellular uptake in human AsPC1 cells at 15 MBq after 10 mins by gamma counting in presence of PEPT1/2 substrate glycylsarcosine. The format is ADME, cell-based. Particulars: aspc1, 10 min.
Data set [5] in a line: Protein binding in mouse serum by ultrafiltration method. The format is ADME, cell-free. Particulars: read-out: PB (converted).
The test system of data set [6] is ASPC1. Nature of the data set: Cellular uptake in human AsPC1 cells at 15 MBq after 10 mins by gamma counting in presence of aminolevulinic acid. The format is ADME, cell-based. To be noted: aspc1, 10 min.
In data set [7] the test system is ASPC1. Nature of the data set: Cellular uptake in human AsPC1 cells at 15 MBq by gamma counting. The format is ADME, cell-based. To be noted: TDE = time-dependent effect.

In data set [1], `[11CH3]C(N)C(=O)CCC(=O)O` (racemic) had a fraction unbound at 1 h of 0.974. For the same compound, the Drug uptake entry in the data set with ASPC1 [2] was “Not Active”; in the data set with ASPC1 [4], “Not Active”; in the data set on ASPC1 [6], “Not Active”; in the data set on ASPC1 [7], “tde”. In addition, in data set [3], the affinity, expressed as Ki, was 200 nM. The fraction unbound in data set [5] is 0.973.
